Data from PubChem BioAssay AID1919017 (Molecular Pharmacology Branch, DTP, NCI, 2023).

Tested on: SW1271 complex spheroids with HUVEC/MSC, growth, % test/control
Test: Anticancer human tumor SW1271 cell line growth inhibition [AhR];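 also: spheroids exposed to agents for 7 days before readout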
Settings: for IC50: curve of first compound; for viability, T/C: stronger effect = lower value
In short: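 Complex tumor spheroids co-cultured with HUVEC and human MSC stroma; AhR antagonists tested in combination with standard-of-care and investigational agents. Top concentration at or near clinical Cmax (else 10 microM), half-log dilutions; growth expressed as percent test/control.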

[1] = second compound 0.1 µM, first compound 0.00949 µM
[2] = second compound 0.1 µM, first compound 0.03 µM
[3] = second compound 0.1 µM, first compound 0.0949 µM
[4] = second compound 0.1 µM, first compound 0.3 µM
[5] = second compound 0.316 µM, first compound 0.00949 µM
[6] = second compound 0.316 µM, first compound 0.03 µM
[7] = second compound 0.316 µM, first compound 0.0949 µM
[8] = second compound 0.316 µM, first compound 0.3 µM
[9] = second compound 1 µM, first compound 0.00949 µM
[10] = second compound 1 µM, first compound 0.03 µM
[11] = second compound 1 µM, first compound 0.0949 µM
[12] = second compound 1 µM, first compound 0.3 µM
[13] = second compound 3.16 µM, first compound 0.00949 µM
[14] = second compound 3.16 µM, first compound 0.03 µM
[15] = second compound 3.16 µM, first compound 0.0949 µM
[16] = second compound 3.16 µM, first compound 0.3 µM
[17] = second compound 10 µM, first compound 0.00949 µM
[18] = second compound 10 µM, first compound 0.03 µM
[19] = second compound 10 µM, first compound 0.0949 µM
[20] = second compound 10 µM, first compound 0.3 µM

`COc1ccc([C@@H](O)c2cc(-c3ncnc4cc(N5CCOCC5)ccc34)c(F)cc2Cl)nn1` + Cc1ccccc1N=Nc1ccc(NC(=O)c2ccnn2C)c(C)c1 showed an IC50 (second compound 0.1 µM) of 2220 nM, an IC50 (second compound 0.316 µM) of 2550 nM and an IC50 (second compound 1 µM) of 5040 nM. It also gave an IC50 (second compound 3.16 µM) of 4750 nM, an IC50 (second compound 10 µM) of 1980 nM and a viability, T/C (second compound 0.1 µM, first compound 0.0316 µM) of 97.2%. The viability, T/C (second compound 0.1 µM, first compound 0.1 µM) was 98.1%, the viability, T/C (second compound 0.1 µM, first compound 0.316 µM) was 87.2% and the viability, T/C (second compound 0.1 µM, first compound 1 µM) was 58.6%. It also gave a viability, T/C (second compound 0.1 µM, first compound 3.16 µM) of 50%, a viability, T/C (second compound 0.1 µM, first compound 10 µM) of 33.9% and a viability, T/C (second compound 0.316 µM, first compound 0.0316 µM) of 82.9%. It also gave a viability, T/C (second compound 0.316 µM, first compound 0.1 µM) of 94.2%, a viability, T/C (second compound 0.316 µM, first compound 0.316 µM) of 77.6% and a viability, T/C (second compound 0.316 µM, first compound 1 µM) of 65%. For the same molecule, the viability, T/C (second compound 0.316 µM, first compound 3.16 µM) was 47.6%, the viability, T/C (second compound 0.316 µM, first compound 10 µM) was 33.5% and the viability, T/C (second compound 1 µM, first compound 0.0316 µM) was 94.6%. The viability, T/C (second compound 1 µM, first compound 0.1 µM) was 89%, the viability, T/C (second compound 1 µM, first compound 0.316 µM) was 86.2% and the viability, T/C (second compound 1 µM, first compound 1 µM) was 68.1%. For the same molecule, the viability, T/C (second compound 1 µM, first compound 3.16 µM) was 57.9%, the viability, T/C (second compound 1 µM, first compound 10 µM) was 40.4% and the viability, T/C (second compound 3.16 µM, first compound 0.0316 µM) was 84.5%. For the same molecule, the viability, T/C (second compound 3.16 µM, first compound 0.1 µM) was 80.5%, the viability, T/C (second compound 3.16 µM, first compound 0.316 µM) was 70.6% and the viability, T/C (second compound 3.16 µM, first compound 1 µM) was 68.9%. For the same molecule, the viability, T/C (second compound 3.16 µM, first compound 3.16 µM) was 59.2%, the viability, T/C (second compound 3.16 µM, first compound 10 µM) was 36.8% and the viability, T/C (second compound 10 µM, first compound 0.0316 µM) was 89.5%. It also gave a viability, T/C (second compound 10 µM, first compound 0.1 µM) of 73.5%, a viability, T/C (second compound 10 µM, first compound 0.316 µM) of 77.7% and a viability, T/C (second compound 10 µM, first compound 1 µM) of 60.9%. For the same molecule, the viability, T/C (second compound 10 µM, first compound 3.16 µM) was 41.2% and the viability, T/C (second compound 10 µM, first compound 10 µM) was 37.4%.

With `Nc1ncn(C2CC(O)C(CO)S2)c(=O)n1` (stereo not given) + Cc1ccccc1N=Nc1ccc(NC(=O)c2ccnn2C)c(C)c1 the IC50 (second compound 0.1 µM) was over 300 nM, the IC50 (second compound 0.316 µM) was over 300 nM and the IC50 (second compound 1 µM) was over 300 nM. For the same molecule, the IC50 (second compound 3.16 µM) was over 300 nM, the IC50 (second compound 10 µM) was over 300 nM and the viability, T/C (second compound 0.1 µM, first compound 0.000949 µM) was 120%. The viability, T/C (second compound 0.1 µM, first compound 0.003 µM) was 102%, the viability, T/C [1] was 87.8% and the viability, T/C [2] was 102%. It also gave a viability, T/C [3] of 95.4%, a viability, T/C [4] of 79.5% and a viability, T/C (second compound 0.316 µM, first compound 0.000949 µM) of 101%. It also gave a viability, T/C (second compound 0.316 µM, first compound 0.003 µM) of 94.4%, a viability, T/C [5] of 83.6% and a viability, T/C [6] of 89.2%. The viability, T/C [7] was 89.9%, the viability, T/C [8] was 78.6% and the viability, T/C (second compound 1 µM, first compound 0.000949 µM) was 87.9%. For the same molecule, the viability, T/C (second compound 1 µM, first compound 0.003 µM) was 96%, the viability, T/C [9] was 109% and the viability, T/C [10] was 94.6%. It also gave a viability, T/C [11] of 76.9%, a viability, T/C [12] of 99.9% and a viability, T/C (second compound 3.16 µM, first compound 0.000949 µM) of 81.2%. It also gave a viability, T/C (second compound 3.16 µM, first compound 0.003 µM) of 115%, a viability, T/C [13] of 116% and a viability, T/C [14] of 88.7%. It also gave a viability, T/C [15] of 85.4%, a viability, T/C [16] of 105% and a viability, T/C (second compound 10 µM, first compound 0.000949 µM) of 103%. For the same molecule, the viability, T/C (second compound 10 µM, first compound 0.003 µM) was 95.3%, the viability, T/C [17] was 86% and the viability, T/C [18] was 92.7%. The viability, T/C [19] was 85% and the viability, T/C [20] was 77.2%.

Work on `O=C(C=Cn1cnc(-c2cc(C(F)(F)F)cc(C(F)(F)F)c2)n1)NNc1cnccn1` + Cc1ccccc1N=Nc1ccc(NC(=O)c2ccnn2C)c(C)c1 yielded an IC50 (second compound 0.1 µM) of 2020 nM, an IC50 (second compound 0.316 µM) of 1390 nM and an IC50 (second compound 1 µM) of 2470 nM. The IC50 (second compound 3.16 µM) was over 3000 nM, the IC50 (second compound 10 µM) was over 3000 nM and the viability, T/C [1] was 87%. The viability, T/C [2] was 111%, the viability, T/C [3] was 86.1% and the viability, T/C [4] was 64.5%. For the same molecule, the viability, T/C (second compound 0.1 µM, first compound 0.949 µM) was 54.1%, the viability, T/C (second compound 0.1 µM, first compound 3 µM) was 46.7% and the viability, T/C [5] was 78.9%. It also gave a viability, T/C [6] of 86.2%, a viability, T/C [7] of 84% and a viability, T/C [8] of 64.8%. For the same molecule, the viability, T/C (second compound 0.316 µM, first compound 0.949 µM) was 56%, the viability, T/C (second compound 0.316 µM, first compound 3 µM) was 42.8% and the viability, T/C [9] was 111%. The viability, T/C [10] was 85.7%, the viability, T/C [11] was 79% and the viability, T/C [12] was 79.2%. It also gave a viability, T/C (second compound 1 µM, first compound 0.949 µM) of 59.4%, a viability, T/C (second compound 1 µM, first compound 3 µM) of 45.8% and a viability, T/C [13] of 109%. For the same molecule, the viability, T/C [14] was 95.6%, the viability, T/C [15] was 99.7% and the viability, T/C [16] was 61.4%. The viability, T/C (second compound 3.16 µM, first compound 0.949 µM) was 64.9%, the viability, T/C (second compound 3.16 µM, first compound 3 µM) was 49% and the viability, T/C [17] was 94.8%. It also gave a viability, T/C [18] of 93%, a viability, T/C [19] of 107% and a viability, T/C [20] of 71.2%. For the same molecule, the viability, T/C (second compound 10 µM, first compound 0.949 µM) was 61.4% and the viability, T/C (second compound 10 µM, first compound 3 µM) was 45.7%.
